Experimental data taken from PubChem BioAssay AID1963873 (Molecular Pharmacology Branch, DTP, NCI, 2024).

Tested on: 276233-004-R-J1-PDC KRAS spheroids with HUVEC/MSC, viability
Test: Anticancer human tumor 276233-004-R-J1-PDC patient-derived colon adenocarcinoma cell line growth inhibition [KRAS2]
Settings: for viability, T/C: stronger effect = lower value
Text: Multicellular complex tumor spheroid response to RAS pathway inhibitors in combination with a targeted agents in patient-derived cell lines with oncogenic KRAS variants from multiple cancer types
A high-throughput screen of multi-cell type tumor spheroids was designed to identify active combinations of targeted small molecules and KRAS pathway inhibitors. Complex spheroids include a stromal component modeled by human endothelial cells (HUVEC) and fibroblasts modeled by human mesenchymal stem cells (MSCs). The concentration ranges selected for each drug and investigational agent were based upon clinically achievable concentrations if the clinical Cmax of the agent was known.
Compounds. The drugs and investigational agents: BI-3406 (NSC825286), BAY-293 (NSC824723), batoprotafib (TNO155; NSC825523), sotorasib (AMG 510; NSC818433), MRTX1257 (NSC819558), elimusertib (BAY 1895344; NSC800525), molibresib (GSK525762; NSC774829), temuterkib (LY3214996; NSC803410), venetoclax (NSC766270), alisertib (NSC759677), olaparib (NSC753686), talazoparib (NSC767125), erdafitinib (NSC781556), ipatasertib (NSC767898), cabozantinib (NSC761068), nintedanib (NSC756659), abemaciclib (NSC768073), docetaxel (NSC628503), trametinib (NSC758246), and sapanisertib (NSC764658) were obtained from the National Cancer Institute (NCI) Developmental Therapeutics Program Chemical Repository. The FDA-approved anticancer drug set is available from the Developmental Therapeutics Program. […] The stock solutions were prepared in dimethyl sulfoxide (DMSO, Sigma-Aldrich, St. Louis, MO, cat. D2650) at 800-fold the tested concentration and stored at -70 degrees C prior to their use. All drugs and investigational agents were tested over a range starting from a high concentration at or near the clinical Cmax and decreasing in half-log increments. If the clinical Cmax for an agent had not been determined, the highest concentration tested was 10 microM.
Cell Culture. All cells were maintained in an incubator at 37 degrees C and 5% CO2 with 95% humidity. The PDC lines were cultured according to standard operating procedures established by the NCI PDMR (https://pdmr.cancer.gov/sops/default.htm). Briefly, all PDCs were thawed and cultured in Matrigel-coated flasks prepared with a working solution of 1X Ham's F-12 nutrient mix, without supplementation (Invitrogen, Waltham, MA, cat. 11765054), 100 U/mL penicillin-streptomycin (Invitrogen, cat. 15140122), and 2.5% Matrigel (Corning Inc., Corning, NY, cat. 354248) for the first three passages. All PDCs were cultured in complete DMEM/F-12 media containing advanced DMEM/F-12 (Invitrogen, cat. 12634028), 4.9% defined fetal bovine serum, heat inactivated (HyClone Laboratories Inc., Logan, UT, cat. SH30070.03HI), 389 ng/mL hydrocortisone (Sigma-Aldrich, cat. H4001), 9.7 ng/mL human EGF recombinant protein (Invitrogen, cat. PHG0313), 23.4 microg/mL adenine (Sigma-Aldrich, cat. A2786), 97.3 U/mL penicillin-streptomycin (Invitrogen, cat. 15140122), 1.9 mM L-glutamine (Invitrogen, cat. 25030081), and 9.7 microM Y-27632 dihydrochloride (Tocris Bioscience, Bristol, United Kingdom, cat. 1254). The PDCs were cultured in complete DMEM/F12 media without 9.7 microM Y-27632 dihydrochloride for at least two passages prior to the screen. The established cell line HOP-62 was cultured in RPMI 1640 medium, HEPES (Invitrogen, cat. 22400105) with 10% defined fetal bovine serum (HyClone Laboratories Inc., cat. SH30070.03) and 2 mM L-glutamine (Invitrogen, cat. 25030081). The pooled donor HUVEC were cultured in endothelial cell growth medium 2 (PromoCell, Heidelberg, Germany, cat. C-22011) and the hMSC were cultured in mesenchymal stem cell growth medium 2 (PromoCell, cat. C-28009). For all experiments, HUVEC and hMSC were used at passages </=5, while the malignant cell lines were used at passages </=15. […]

[1] = curve of first compound, second compound 0.1 µM
[2] = curve of first compound, second compound 0.316 µM
[3] = curve of first compound, second compound 1 µM
[4] = curve of first compound, second compound 3.16 µM
[5] = second compound 0.1 µM, first compound 0.0316 µM
[6] = second compound 0.1 µM, first compound 0.1 µM
[7] = second compound 0.1 µM, first compound 0.316 µM
[8] = second compound 0.1 µM, first compound 1 µM
[9] = second compound 0.1 µM, first compound 3.16 µM
[10] = second compound 0.1 µM, first compound 10 µM
[11] = second compound 0.316 µM, first compound 0.0316 µM
[12] = second compound 0.316 µM, first compound 0.1 µM
[13] = second compound 0.316 µM, first compound 0.316 µM
[14] = second compound 0.316 µM, first compound 1 µM
[15] = second compound 0.316 µM, first compound 3.16 µM
[16] = second compound 0.316 µM, first compound 10 µM
[17] = second compound 1 µM, first compound 0.0316 µM
[18] = second compound 1 µM, first compound 0.1 µM
[19] = second compound 1 µM, first compound 0.316 µM
[20] = second compound 1 µM, first compound 1 µM
[21] = second compound 1 µM, first compound 3.16 µM
[22] = second compound 1 µM, first compound 10 µM
[23] = second compound 3.16 µM, first compound 0.0316 µM
[24] = second compound 3.16 µM, first compound 0.1 µM
[25] = second compound 3.16 µM, first compound 0.316 µM
[26] = second compound 3.16 µM, first compound 1 µM
[27] = second compound 3.16 µM, first compound 3.16 µM
[28] = second compound 3.16 µM, first compound 10 µM
[29] = curve of first compound, second compound 10 µM
[30] = second compound 10 µM, first compound 0.0316 µM
[31] = second compound 10 µM, first compound 0.1 µM
[32] = second compound 10 µM, first compound 0.316 µM
[33] = second compound 10 µM, first compound 1 µM
[34] = second compound 10 µM, first compound 3.16 µM
[35] = second compound 10 µM, first compound 10 µM
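Note: cells exposed to agents for seven days before viability read.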
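Throughout, for viability, T/C: 100% = DMSO vehicle control wells and lower values mean fewer viable cells.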

Row | Structure (SMILES) | IC50 [1] [µM] | IC50 [2] [µM] | IC50 [3] [µM] | IC50 [4] [µM] | viability, T/C [5] [%] | viability, T/C [6] [%] | viability, T/C [7] [%] | viability, T/C [8] [%] | viability, T/C [9] [%] | viability, T/C [10] [%] | viability, T/C [11] [%] | viability, T/C [12] [%] | viability, T/C [13] [%] | viability, T/C [14] [%] | viability, T/C [15] [%] | viability, T/C [16] [%] | viability, T/C [17] [%] | viability, T/C [18] [%] | viability, T/C [19] [%] | viability, T/C [20] [%] | further results
1 | CC(=O)Nc1cccc(-n2c(=O)n(C3CC3)c(=O)c3c(Nc4ccc(I)cc4F)n(C)c(=O)c(C)c32)c1 |  |  |  |  |  |  |  |  |  |  |  |  |  |  |  |  |  |  |  |  | viability, T/C (compound 0.0001 µM): 95.5% [middle of 5 runs]; viability, T/C (compound 0.000316 µM): 85.5% [middle of 5 runs]; viability, T/C (compound 0.00316 µM): 68.5% [middle of 5 runs]; viability, T/C (compound 0.01 µM): 54.7% [middle of 5 runs]; viability, T/C (compound 0.0316 µM): 21.5% [middle of 5 runs]; IC50 (curve of compound): 9.31 nM [middle of 5 runs]
2 | Cn1nccc1Nc1nccc(-c2cc3c(s2)C(C)(C)N(CCN2CCOCC2)C3=O)n1 + C=CC(=O)N1CCN(c2nc(OCC3CCCN3C)nc3c2CCN(c2cccc4cccc(C)c24)C3)CC1CC#N | > 10 | > 10 | > 10 | 0.236 | 100 | 99.3 | 79.7 | 75.7 | 51.7 | 52.2 | 109 | 98 | 101 | 77.8 | 56.4 | 57.4 | 101 | 109 | 87.2 | 77 | IC50 (curve of first compound, second compound 0.0316 µM): 4.83 µM; viability, T/C (second compound 0.0316 µM, first compound 0.0316 µM): 99.8%; viability, T/C (second compound 0.0316 µM, first compound 0.1 µM): 108%; viability, T/C (second compound 0.0316 µM, first compound 0.316 µM): 86.1%; viability, T/C (second compound 0.0316 µM, first compound 1 µM): 75.9%; viability, T/C (second compound 0.0316 µM, first compound 3.16 µM): 51.7%; viability, T/C (second compound 0.0316 µM, first compound 10 µM): 44.5%; viability, T/C [21]: 55.3%; viability, T/C [22]: 65.9%; viability, T/C [23]: 68.7%; viability, T/C [24]: 46.7%; viability, T/C [25]: 46.7%; viability, T/C [26]: 47.5%; viability, T/C [27]: 21.2%; viability, T/C [28]: 10.9%
3 | CC1OCC2(CCN(c3cnc(Sc4ccnc(N)c4Cl)c(N)n3)CC2)C1N (stereo unspecified) + COc1cc2nc(C)nc(NC(C)c3cc(N)cc(C(F)(F)F)c3)c2cc1OC1CCOC1 | > 10 | > 10 | > 10 | 5.25 | 93.6 | 100 | 70.5 | 78 | 62.9 | 51.7 | 109 | 79 | 78.5 | 62.7 | 61.8 | 57.2 | 91.5 | 86.9 | 81.4 | 80.4 | IC50 [29]: 0.0411 µM; viability, T/C [21]: 55.1%; viability, T/C [22]: 50.8%; viability, T/C [23]: 85.8%; viability, T/C [24]: 77.8%; viability, T/C [25]: 71.8%; viability, T/C [26]: 70%; viability, T/C [27]: 54%; viability, T/C [28]: 42.7%; viability, T/C [30]: 52.4%; viability, T/C [31]: 44.1%; viability, T/C [32]: 34.4%; viability, T/C [33]: 33.9%; viability, T/C [34]: 24.2%; viability, T/C [35]: 18.7%
4 | CCNC(=O)CC1N=C(c2ccc(Cl)cc2)c2cc(OC)ccc2-n2c(C)nnc21 (stereo unspecified) + COc1cc2nc(C)nc(NC(C)c3cc(N)cc(C(F)(F)F)c3)c2cc1OC1CCOC1 | > 10 | 2.46 | 1.19 | 2.34 | 101 | 67.1 | 61.4 | 55 | 50.4 | 49.2 | 94.6 | 80.2 | 69.5 | 54.5 | 45.7 | 48.2 | 84.7 | 77.7 | 60.3 | 42.7 | IC50 [29]: < 0.0316 µM; viability, T/C [21]: 44%; viability, T/C [22]: 34.4%; viability, T/C [23]: 62.3%; viability, T/C [24]: 69.7%; viability, T/C [25]: 62.2%; viability, T/C [26]: 50.8%; viability, T/C [27]: 46%; viability, T/C [28]: 43.2%; viability, T/C [30]: 31.6%; viability, T/C [31]: 33.9%; viability, T/C [32]: 22.6%; viability, T/C [33]: 12.9%; viability, T/C [34]: 11.1%; viability, T/C [35]: 8.17%
